The record followed here is patent US8394775B2 (Amorepacific Corporation, priority 2005, dated 2013).

The test system of assay [1] is procollagen type (I). In words: Promotion of collagen biosynthesis in fibroblasts (procollagen type (I) ELISA). In kind it is cell-based. Conditions: 24 hours, compared to 100 of the non-treatment group. The protocol: Firstly, fibroblasts (PromoCell, Germany) were seeded in a 24 well plate at a level of 10^5 per well and cultured until they grew up to 90%. […] The supernatant was taken and examined for increase and decrease of procollagen using procollagen type (I) ELISA kit (proc/; ollagen type (I)). The result is shown in Table 3, in which the synthesis is compared to 100 of the non-treatment group.
(An ELISA detects its analyte on a solid surface through an enzyme-linked reagent.)

Assay [2] has as its system collagenase. In words: Inhibition of collagenase expression in human fibroblasts. The format is cell-based. Conditions: molar concentration of 10^−4, 24 hours, compared to 100 of the non-treatment group. As to the method:
(§1) Firstly, human fibroblasts were seeded in a 96-well microtiter plate containing DMEM supplemented with 2.5% fetal bovine serum at a level of 5000 cells per well and cultured until they grew up to 90%.
Then, the culture fluid was examined for formation of collagenase using a commercially available collagenase measuring kit (Amorsham pharmacia, USA).
(§2) Firstly, the taken cell culture fluid was added to the 96-well plate having the primary collagenase antibody evenly applied and left for antigen-antibody reaction in a thermostat for 3 hours. After 3 hours, the secondary collagen antibody having a chromophore bonded thereto was added to the 96-well plate and left for reaction for 15 minutes. After 15 minutes, a color developing agent was added and left for 15 minutes. Then, 1M sulphuric acid was added to quit the reaction (color development), upon which the color of the reaction became yellow. The yellow level varied according to the progress of the reaction.
The absorption of the 96-well plate of the yellow color was measured at 405 nm using a spectrophotometer. The expression of collagenase was calculated according to the following Equation I. Here, the absorption of the control was the absorption of the cell culture fluid taken from the group which had not been treated with the test materials. Expression of collagenase (%) (A/B)×100 [Equation I] • (A: absorption of cells treated with the test materials B: absorption of control)
Meanwhile, the result of measurement of inhibition effect of the test materials on collagenase expression in human fibroblasts is shown in Table 4, in which in which the expression of collagenase is compared to 100 of the non-treatment group.

Assay [3] deals with elastase. In words: Inhibition of elastase expression in human fibroblasts. In kind it is cell-based. Conditions: molar concentration of 10^−4, 24 hours, compared to 100 of the non-treatment group. As to the method:
as §1
Then, the culture fluid was examined for formation of elastase using a commercially available elastase measuring kit (Amorsham pharmacia, USA).
as §2, with “elastase” for “collagenase”
The absorption of the 96-well plate of the yellow color was measured at 405 nm using a spectrophotometer. The expression of elastase was calculated according to the following Equation II. Here, the absorption of the control was the absorption of the cell culture fluid taken from the group which had not been treated with the test materials. Expression of elastase (%)=(A/B)×100 [Equation II] • (A: absorption of cells treated with the test materials B: absorption of control)
Meanwhile, the result of measurement of inhibition effect of the test materials on elastase expression in human fibroblasts is shown in Table 5, in which the expression of elastase is compared to 100 of the non-treatment group.

The test system of assay [4] is human skin. In words: Whitening effect on human skin after UV-induced darkening. Conditions: 1% applied on UV-darkened upper arm skin, 10 weeks, colorimeter. In kind it is in vivo. As to the method: Firstly, 12 healthy males were enlisted for the test. They had opaque tape with a 1.5 cm hole attached on the upper arm. UV rays 1.5 to 2 times greater than the minimal erythema dose were irradiated to induce darkening of the skin.
For 10 weeks, the change was observed. Every 1 week, the color of the skin was measured by colorimeter CR2002 (Japan, Minolta)
Then, the difference of skin color (ΔL*) between the point when the application of the test material was initiated and the point when the application of the test material was completed was calculated according to the following equation and the result is shown in Table 7. Meanwhile, the whitening effect was determined by comparison of ΔL* between the sample applied part and the control. When ΔL* value is about 2, the whitening of the pigmentation was significant. When ΔL* is over 1.5, it was considered that the sample had whitening effect. ΔL*=(L*at the point when the application is completed)−(L*at the point when the application is initiated) [Equation 4]

For assay [5], the system named is pigment cells (Mel-Ab cell). The experiment in a line: Inhibition of melanin synthesis using pigment cell of mouse. Conditions: 10 ppm for continuous 3 days, non-treatment group given as 100.0. In kind it is cell-based. An excerpt: Here, hydroquinone was a positive control.
For assay [6], the system named is Human keratinocytes HaCaT cell line. In words: Inhibition of reactive oxygen species (ROS) production using fluorescent material (DCFH-DA), UVB irradiation. The format is cell-based. Conditions: HaCaT cells, UVB 30 mJ/cm^2, DCF fluorescence. The protocol: The cell lines used in the test was Human keratinocytes HaCaT cell line. The cells were distributed to a 96 well black plate for fluorescence measurement at 2.0×10^4 per each well and cultured in DMEM (Dulbeccos Modification of Eagles Medium, FBS 10%) supplemented with penicillin/streptomycin at 37° C., 5% CO2 for 1 day, followed by treatment with test samples. Serum free DMEM (FBS free) supplemented with penicillin/streptomycin as shown in Table 2 was used for cultivation of the medium which had been treated with samples. The cultivation was performed at 37° C., 5% CO2 for 1 day.
After cultivation of 24 hours with test samples, the plate was washed with HCSS (HEPES-buffered control salt solution) to remove the medium and the HCSS was treated with 100 μl of 20 μM DCFH-DA (2′,7′-dichlorodihydro-fluorescein diacetate, Molecular Probes, Inc). Then, the plate was kept under conditions of 37° C., 5% CO2 for 20 minutes and washed with HCSS. Next, the plate was treated with 100 μl of HCSS comprising samples at different concentrations and the fluorescence intensity of DCF (dichlorofluorescein), which had been oxidized […] at the early stage, was measured using a fluorescent plate reader (Ex=485 nm, Em=530 nm). The fluorescence, right after the irradiation of UVB (30 mJ/cm^2) or 3 hours later of the irradiation, was measured using a fluorescent plate reader (Ex=485 nm, Em=530 nm).
As control, Trolox was used.

Assay [7] can be described thus: DPPH test of anti-oxidant effect. The format is biochemical. Conditions: read-out: DPPH analysis IC50 (concentration, upon which the absorption is decreased to 50%); 100 μM DPPH in ethanol, 37° C., 30 minutes, absorption at 540 nm. The protocol:
A method for evaluating anti-oxidant effect through change of absorption generated by reduction of the organic radical DPPH (1,1-diphenyl-2-picryl hydrazyl) (while anti-oxidant is oxidized) is used. The change of absorption, which was decreased when the oxidization of DPPH was inhibited, was measured, as compared to the control.
The absorption was measured at 540 nm. The control sample was synthesized anti-oxidant Trolox, commonly used.

In the case of `O=C(O[C@@H]1Cc2c(O)cc(O)cc2O[C@@H]1c1cc(O)c(O)c(O)c1)c1cc(O)c(O)c(O)c1` [EGCG, reference compound], the “Synthesis (%) of procollagen” value in assay [1] is on record as 125%. Also, the “Expression of collagenase (%)” value in assay [2] amounted to 60%. In assay [3], the “Expression of elastase (%)” value came out at 68%.

As to `Oc1ccc(O)cc1` [Hydroquinone, hydroquinone, reference compound], the “Whitening effect (ΔL*)” value in assay [4] was found to be 1.90 ± 0.11. Moreover, the “Melanin content (% of untreated control)” value in assay [5] stood at 41.1%.

In the case of `COc1ccc(-c2oc3c(CC=C(C)C)c(O[C@@H]4O[C@H](CO)[C@@H](O)[C@H](O)[C@H]4O)cc(O)c3c(=O)c2O[C@@H]2O[C@@H](C)[C@H](O)[C@@H](O)[C@H]2O)cc1` [Icariin], the “Whitening effect (ΔL*)” value in assay [4] was 1.10 ± 0.13. For the same compound, the “Synthesis (%) of procollagen” value in assay [1] was found to be 117%. In addition, the “Melanin content (% of untreated control)” value in assay [5] is on record as 84.5%. In addition, the “Inhibition effect on ROS production (control %)” value (shortened to “Inhibition effect … (control %)”) in assay [6] (6.25 uM) is given as 98.1%; in assay [6] (12.5 uM) it was 89.7%; in assay [6] (25 uM) it was 88.6%; in assay [6] (50 uM), 86.3%. Besides, in assay [2], the “Expression of collagenase (%)” value was found to be 81%. Moreover, the “Expression of elastase (%)” value in assay [3] turned out to be 87%.

`COc1ccc(-c2oc3c(CC=C(C)C)c(O)cc(O)c3c(=O)c2O[C@@H]2O[C@H](C)[C@@H](O)[C@H](O)[C@@H]2O)cc1` [Icariside II]: the “Whitening effect (ΔL*)” value in assay [4] is reported as 1.83 ± 0.25. Besides, the “Synthesis (%) of procollagen” value in assay [1] was 138%. Further, in assay [5], the “Melanin content (% of untreated control)” value was 38.2%. Moreover, the “Inhibition effect … (control %)” value in assay [6] (6.25 uM) worked out at 63.2%; in assay [6] (12.5 uM), 62.0%; in assay [6] (25 uM), 56.6%; in assay [6] (50 uM), 46.6%. Further, the “Expression of collagenase (%)” value in assay [2] turned out to be 66%. The “Expression of elastase (%)” value in assay [3] is 63%. Moreover, the IC50 in assay [7] came out at 7.15 µM.

In the case of `COc1ccc(-c2oc3c(CC=C(C)C)c(O[C@@H]4O[C@H](CO)[C@@H](O)[C@H](O)[C@H]4O)cc(O)c3c(=O)c2O)cc1` [Icariside I], the “Whitening effect (ΔL*)” value in assay [4] was determined as 1.88 ± 0.17. For the same compound, the “Synthesis (%) of procollagen” value in assay [1] came to 145%. Moreover, the “Melanin content (% of untreated control)” value in assay [5] came to 38.6%. For the same compound, the “Inhibition effect … (control %)” value in assay [6] (6.25 uM) worked out at 65.6%; in assay [6] (12.5 uM), 61.4%; in assay [6] (25 uM), 54.8%; in assay [6] (50 uM) it was 43.8%. The “Expression of collagenase (%)” value in assay [2] is reported as 64%. For the same compound, in assay [3], the “Expression of elastase (%)” value is on record as 56%. In addition, the IC50 in assay [7] worked out at 7.78 µM.

As for `COc1ccc(-c2oc3c(CC=C(C)C)c(O)cc(O)c3c(=O)c2O)cc1` [Icaritin], in assay [4], the “Whitening effect (ΔL*)” value worked out at 1.89 ± 0.25. For the same compound, the “Synthesis (%) of procollagen” value in assay [1] is 146%. Moreover, in assay [5], the “Melanin content (% of untreated control)” value came to 39.5%. For the same compound, the “Inhibition effect … (control %)” value in assay [6] (6.25 uM) is recorded as 68.2%; in assay [6] (12.5 uM), 61.5%; in assay [6] (25 uM), 51.7%; in assay [6] (50 uM) it was 43.2%. In assay [2], the “Expression of collagenase (%)” value stood at 66%. For the same compound, the “Expression of elastase (%)” value in assay [3] turned out to be 55%. In assay [7], the IC50 is 6.75 µM.

On to `Cc1c(C)c2c(c(C)c1O)CCC(C)(C(=O)O)O2` (stereo not shown) [Trolox, reference compound], for which, in assay [6] (Homo sapiens, light or radiation study, 6.25 uM, read-out: Inhibition effect on ROS production (control %)), the activity at 6.25 µM stood at 76.9%. In addition, in assay [6] (Homo sapiens, light or radiation study, 12.5 uM, read-out: Inhibition effect on ROS production (control %)), the activity at 12.5 µM came out at 74.6%. Moreover, the activity at 25 µM in assay [6] (Homo sapiens, light or radiation study, 25 uM, read-out: Inhibition effect on ROS production (control %)) stood at 73.3%. Besides, the activity at 50 µM in assay [6] (Homo sapiens, light or radiation study, 50 uM, read-out: Inhibition effect on ROS production (control %)) stood at 58.5%. The IC50 in assay [7] came to 8.63 µM.

Regarding tocopherol [reference compound], in assay [1], the “Synthesis (%) of procollagen” value is 118%. In addition, in assay [2], the “Expression of collagenase (%)” value worked out at 75%. Also, in assay [3], the “Expression of elastase (%)” value came to 88%.
